For data set [1], the system named is HL-60 human promyelocytic leukemia cells. As to the kind of experiment: MTT cell growth inhibition assay, HL-60 promyelocytic leukemia cells, 72 h exposure. The data set is classed as cell-based. Conditions: for IC50: Homo sapiens, HL-60, promyelocytic leukemia cell line, MTT, 72 h, mean of six determinations, read-out: IC50 ± SEM HL-60.
Data set [2] deals with AGS human gastric adenocarcinoma cells. As to the kind of experiment: MTT cell growth inhibition assay, AGS gastric adenocarcinoma cells, 72 h exposure. The data set is classed as cell-based. Conditions: for IC50: human gastric adenocarcinoma cell line, MTT, 72 h, mean of six determinations, read-out: IC50 ± SEM AGS; for selectivity index (IS), AGS: MRC-5 relative to AGS.
The nature of data set [3]: Cyclic voltammetry, first half-wave potential. The data set is classed as physicochemical. Conditions: for −E^I1/2: sign inverted, 0.1 M tetraethylammonium tetrafluoroborate, sweep rate 100 mV s^−1; for −E^I1/2 / E^I1/2 (first half-wave potential): acetonitrile, Pt electrode, vs non-aqueous Ag/Ag+. As to the method:
The redox potentials of the members of the series were measured by cyclic voltammetry in acetonitrile as solvent, at room temperature, using a platinum electrode and 0.1 M tetraethylammonium tetrafluoroborate as the supporting electrolyte. […] The voltammograms were run in the potential range 0–2.0 V versus non-aqueous Ag/Ag+. The first half-wave potential values, E^I1/2, evaluated from the voltammograms obtained at a sweep rate of 100 mV s^−1, are summarized in Table 3.

Data set [4] deals with MRC-5 normal human lung fibroblasts. As to the kind of experiment: MTT cell growth inhibition assay, MRC-5 normal lung fibroblasts, 72 h exposure. Particulars: MRC5, 72 h, read-out: IC50 ± SEM MRC-5.
Method: Aminoisoquinolinequinones 5a–h and 6a–f were evaluated for in vitro antiproliferative activity against normal human lung fibroblast MRC-5 and two human cancer cells lines: AGS gastric adenocarcinoma and HL-60 promyelocytic leukemia cells, in 72 h drugs exposure assays. The antiproliferative activity of the new compounds was measured using conventional microculture tetrazolium reduction assays [25, 26, 27].
The cell lines used in this work were obtained from the American Type Culture Collection (ATCC, Manasas, VA, USA). […] The cells were stored in medium containing 10% glycerol in liquid nitrogen. […] Cells were sub-cultured once a week and the medium was changed every two days. Cells were grown in the following media: MRC-5 in Eagle minimal essential medium (EMEM), AGS cells in Ham F-12, and HL-60 in suspension in RPM1. The EMEM medium contained 2 mM L-glutamine, 1 mM sodium pyruvate and 1.5 g/L sodium hydrogen carbonate. Ham F-12 was supplemented with 2 mM L-glutamine and 1.5 g/L sodium hydrogen carbonate. RPM1 medium containing 1mM sodium pyruvate and 2.0 g/L sodium bicarbonate. […] For the experiments, cells were plated at a density of 50,000 cells/mL in 96-well plates. One day after seeding, the cells were treated with the medium containing the compounds at concentrations ranging from 0 up to 100 μM during 3 days. […] The compounds were dissolved in DMSO (1% final concentration) and complete medium. Untreated cells (medium containing 1% DMSO) were used as controls. At the end of the incubation, the MTT reduction (3-(4,5-dimethylthiazol-2-yl)-2,5-diphenyltetrazolium bromide) assay was carried out to determine cell viability. The final concentration of MTT was 1 mg/mL. The culture medium containing the compounds under evaluation, was removed from each well by means by vacuum aspiration before adding the MTT solution. MTT metabolite was dissolved adding 100 µL of ethanol (acidified with HCl). The plates were shaken for 10 min and the absorbance was measured at 550 nm using a Universal Microplate Reader (ELx800, Bio-Tek Instruments Inc., Winnoski, VT, USA). Six replicates for each concentration were used and the values were averaged. […] The IC50 value was obtained adjusting the dose-response curve to a sigmoidal model (a + (b − a)/1 + 10^(x − c)), where c = log IC50.

Molecules are shown by their SMILES.

Take `CC(=O)c1c(C)nc(-c2cccs2)c2c1C(=O)C=C(Nc1ccccc1)C2=O` [6c, 4-Acetyl-3-methyl-7-(phenylamino)-1-(thiophen-2-yl)isoquinoline-5,8-dione]: the melting point (in general, the temperature of the solid-liquid transition) was 93.5 to 94.5 °C. The IC50 – broadly, the concentration that inhibits the measured activity by half – in data set [1] is greater than 100 µM. The IC50 in data set [2] was greater than 100 µM. The “−E^I1/2” value in data set [3] was 576 mV. Besides, in data set [4], the IC50 was greater than 100 µM.
`COC(=O)c1c(C)nc(-c2ccccc2)c2c1C(=O)C=C(Nc1ccc(OC)cc1)C2=O` [5d, Methyl 7-(4-methoxyphenylamino)-3-methyl-5,8-dioxo-1-phenyl-5,8-dihydroisoquinoline-4-carboxylate] registered a melting point of 202 to 203.5 °C. Besides, the IC50 in data set [1] was greater than 100 µM. In addition, the “antiproliferative activity on AGS cancer cell line (in words)” value in data set [2] (effect of phenyl group inserted at 1-position of 5b) was “suppression of the antiproliferative activity”. The IC50 in data set [2] was greater than 100 µM. Further, in data set [3], the “−E^I1/2” value is given as 583 mV. Also, in data set [4], the IC50 is greater than 100 µM.
As to `COC(=O)c1c(C)ncc2c1C(=O)C=CC2=O` [3a], in data set [3], the “E^I1/2 (first half-wave potential)” value is on record as −352 mV and the “−E^I1/2” value is recorded as 352 mV.
`CC(=O)c1c(C)ncc2c1C(=O)C=C(Nc1ccccc1)C2=O` [6a, 4-Acetyl-3-methyl-7-(phenylamino)isoquinoline-5,8-dione]: the melting point fell in the range of 178 to 180 °C. Moreover, the IC50 in data set [1] stood at 1.24 ± 0.06 µM. Further, in data set [1] (MRC-5 relative to HL-60), the “selectivity index (IS), HL-60” value turned out to be 2.96. For the same compound, in data set [2], the “selectivity index (IS), AGS” value worked out at 3.08 and the IC50 stood at 1.19 ± 0.07 µM. Moreover, in data set [3], the E^I1/2 (half-wave potential) was -464 mV, the “E^I1/2 (first half-wave potential)” value is −464 mV and the “−E^I1/2” value came out at 464 mV. Also, the IC50 in data set [4] is 3.67 ± 0.22 µM.
`CC(=O)c1c(C)nc(-c2ccco2)c2c1C(=O)C=CC2=O` [4d, 4-Acetyl-1-(furan-2-yl)-3-methylisoquinoline-5,8-dione]: the melting point is 159 to 160 °C. In addition, the “−E^I1/2” value in data set [3] is reported as 384 mV.
Turning to `CC(=O)c1c(C)nc(-c2ccco2)c2c1C(=O)C=C(Nc1ccccc1)C2=O` [6d, 4-Acetyl-1-(2-furyl)-3-methyl-7-(phenylamino)isoquinoline-5,8-dione], the melting point is 187 to 188.5 °C. Also, in data set [1], the IC50 was 8.19 ± 0.57 µM. Moreover, in data set [2], the IC50 worked out at 1.79 ± 0.11 µM. Besides, the “−E^I1/2” value in data set [3] is reported as 533 mV. The IC50 in data set [4] stood at 5.72 ± 0.24 µM.
The compound `COC(=O)c1c(C)nc(-c2cccs2)c2c1C(=O)C=C(Nc1ccc(OC)cc1)C2=O` [5f, Methyl 7-(4-methoxyphenylamino)-3-methyl-5,8-dioxo-1-(thiophen-2-yl)-5,8-dihydroisoquinoline-4-carboxylate] registered a melting point of 214 to 216 °C. Besides, the IC50 in data set [1] is 10.26 ± 0.09 µM. In data set [2], the IC50 worked out at 3.28 ± 0.13 µM. In addition, in data set [3], the “−E^I1/2” value was 583 mV. Besides, the IC50 in data set [4] was determined as 9.19 ± 0.53 µM.
The compound `CC(=O)c1c(C)ncc2c1C(=O)C=CC2=O` [4a, 4-Acetyl-3-methylisoquinoline-5,8-dione] displayed a melting point of 146 to 148 °C. For the same compound, in data set [3], the “E^I1/2 (first half-wave potential)” value is reported as −344 mV and the “−E^I1/2” value is 344 mV.
For `COC(=O)c1c(C)ncc2c1C(=O)C=C(Nc1ccccc1)C2=O` [5a], the IC50 was found to be 14.8 ± 0.74 µM in data set [1], 1.1 ± 0.03 µM in data set [2] and 2.7 ± 0.6 µM in data set [4]. For the same compound, in data set [3], the “−E^I1/2” value is reported as 563 mV.
The compound `COC(=O)c1c(C)nc(-c2cccs2)c2c1C(=O)C=C(Nc1ccccc1)C2=O` [5e, Methyl 3-methyl-5,8-dioxo-7-(phenylamino)-1-(thiophen-2-yl)-5,8-dihydroisoquinoline-4-carboxylate] showed a melting point of 163.3 to 165.3 °C. The half-maximal inhibitory concentration (IC50) in data set [1] stood at 5.19 ± 0.31 µM. Also, the IC50 in data set [2] amounted to 4.24 ± 0.21 µM. In addition, in data set [3], the “−E^I1/2” value was found to be 565 mV. In data set [4], the IC50 amounted to 9.89 ± 0.51 µM.
On to `COC(=O)c1c(C)nc(-c2ccco2)c2c1C(=O)C=CC2=O` [3d, Methyl 1-(furan-2-yl)-3-methyl-5,8-dioxo-5,8-dihydroisoquinoline-4-carboxylate], for which the melting point was in the range of 159.5 to 160.5 °C. Further, the “−E^I1/2” value in data set [3] is recorded as 415 mV.
Consider `COC(=O)c1c(C)nc(-c2cccs2)c2c1C(=O)C=CC2=O` [3c, Methyl 3-methyl-5,8-dioxo-1-(thiophen-2-yl)-5,8-dihydroisoquinoline-4-carboxylate], for which the melting point fell in the range of 140 to 142.5 °C. The “−E^I1/2” value in data set [3] is given as 392 mV.
On to `CC(=O)c1c(C)nc(-c2ccccc2)c2c1C(=O)C=C(Nc1ccccc1)C2=O` [6b, 4-Acetyl-3-methyl-1-phenyl-7-(phenylamino)isoquinoline-5,8-dione], for which the melting point lay in the range of 181.5 to 183 °C. Besides, the concentration for half-maximal inhibition (IC50) in data set [1] amounted to 4.74 ± 0.37 µM. Moreover, the IC50 in data set [2] is 2.21 ± 0.09 µM. The “−E^I1/2” value in data set [3] was 588 mV. Besides, the half-maximal inhibitory concentration (IC50) in data set [4] is 5.51 ± 0.22 µM.
The matching figures for `COC(=O)c1c(C)nc(-c2ccccc2)c2c1C(=O)C=C(Nc1ccccc1)C2=O` [5c, Methyl 3-methyl-5,8-dioxo-1-phenyl-7-(phenylamino)-5,8-dihydroisoquinoline-4-carboxylate]: 169.9 to 171.4 °C, 4.39 ± 0.26 µM, 2.52 ± 0.17 µM, 560 mV and 5.91 ± 0.36 µM.
The compound `COC(=O)c1c(C)nc(-c2ccco2)c2c1C(=O)C=C(Nc1ccc(OC)cc1)C2=O` [5h, Methyl 1-(2-furan-2-yl)-7-(4-methoxyphenylamino)-3-methyl-5,8-dioxo-5,8-dihydroisoquinoline-4-carboxylate] returned a melting point of 144 to 146 °C. Moreover, the IC50 in data set [1] is 8.04 ± 0.49 µM. Further, the IC50 in data set [2] turned out to be 1.83 ± 0.11 µM. The “−E^I1/2” value in data set [3] was 577 mV. Also, the IC50 in data set [4] was 4.58 ± 0.35 µM.
Consider `COc1ccc(NC2=CC(=O)c3c(C(C)=O)c(C)nc(-c4cccs4)c3C2=O)cc1` [6f, 4-Acetyl-7-(4-methoxyphenylamino)-3-methyl-1-(thiophen-2-yl)isoquinoline-5,8-dione], for which the melting point is 188.5 to 190 °C. Besides, the IC50 in data set [1] is greater than 100 µM. In data set [2], the “selectivity index (IS), AGS” value is on record as greater than 23 and the IC50 amounted to 4.28 ± 0.21 µM. For the same compound, the “−E^I1/2” value in data set [3] worked out at 576 mV. In data set [4], the IC50 is greater than 100 µM.
Turning to `COC(=O)c1c(C)ncc2c1C(=O)C=C(Nc1ccc(OC)cc1)C2=O` [5b], the IC50 turned out to be 3.8 ± 0.07 µM in data set [1], 1.1 ± 0.1 µM in data set [2] and 2.8 ± 0.8 µM in data set [4]. Moreover, the “−E^I1/2” value in data set [3] amounted to 551 mV.
Consider `COC(=O)c1c(C)nc(-c2ccccc2)c2c1C(=O)C=CC2=O` [3b, Methyl 3-methyl-5,8-dioxo-1-phenyl-5,8-dihydroisoquinoline-4-carboxylate], for which the melting point lay within 175 to 176.5 °C. In addition, in data set [3], the “−E^I1/2” value is given as 399 mV.
Compound `COc1ccc(NC2=CC(=O)c3c(C(C)=O)c(C)nc(-c4ccccc4)c3C2=O)cc1` [6e, 4-Acetyl-7-(4-methoxyphenylamino)-3-methyl-1-phenylisoquinoline-5,8-dione] showed a melting point of 162 to 163 °C. Also, the IC50 in data set [1] stood at 9.36 ± 0.72 µM. Besides, the IC50 in data set [2] turned out to be 4.66 ± 0.28 µM. Besides, in data set [3], the “−E^I1/2” value was 570 mV. In data set [4], the IC50 was determined as 16.1 ± 1.11 µM.
`CC(=O)c1c(C)nc(-c2ccccc2)c2c1C(=O)C=CC2=O` [4b, 4-Acetyl-3-methyl-1-phenylisoquinoline-5,8-dione] had a melting point of 162.5 to 164 °C. Moreover, the “−E^I1/2” value in data set [3] stood at 416 mV.
Take `COC(=O)c1c(C)nc(-c2ccco2)c2c1C(=O)C=C(Nc1ccccc1)C2=O` [5g, Methyl 1-(2-furan-2-yl)-3-methyl-5,8-dioxo-7-(phenylamino)-5,8-dihydroisoquinoline-4-carboxylate]: the melting point lay in the range of 248 to 249 °C. Also, the IC50 in data set [1] was found to be 5 ± 0.35 µM. In data set [2], the IC50 was found to be 1.79 ± 0.11 µM. The “−E^I1/2” value in data set [3] came out at 554 mV. Moreover, in data set [4], the IC50 was found to be 4.72 ± 0.29 µM.
`CC(=O)c1c(C)nc(-c2cccs2)c2c1C(=O)C=CC2=O` [4c, 4-Acetyl-3-methyl-1-(thiophen-2-yl)isoquinoline-5,8-dione] yielded a melting point of 161.5 to 163 °C. The “−E^I1/2” value in data set [3] is 430 mV.
